Test results: ChEMBL document CHEMBL4828717, “Synthetic cajaninstilbene acid derivatives eradicate methicillin-resistant Staphylococcus aureus persisters and biofilms” (Eur J Med Chem, 2021)
Calls of active or inactive are those of the source. No cut-off for these calls is given here.

Experiments:
[1] = test system: Staphylococcus aureus; test: Antibacterial activity against methicillin resistant Staphylococcus aureus ATCC49800 assessed as reduction in microbial growth after 16 to 18 hrs by microbroth dilution method; format: functional; conditions: time 16-18 hrs
[2] = test system: Staphylococcus aureus; test: Inhibition of biofilm formation in methicillin-resistant Staphylococcus aureus ATCC 43300 at 4 times MIC incubated for 24 hrs by crystal violet staining based microplate reader assay; format: functional
[3] = test system: Cell membrane; test: Induction of cell membrane permeabilization in methicillin resistant Staphylococcus aureus ATCC 43300 assessed as fluorescence intensity at 0.5 to 2 times of MIC measured after 30 mins by propidium iodide staining based fluorescence assay; format: subcellular
[4] = test system: Staphylococcus aureus; test: Synergistic antimicrobial activity against Staphylococcus aureus ATCC 43300 assessed as FICI at 0.5 times MIC after 24 hrs in presence of 128 ug/ml kanamycin by checkerboard assay; format: functional
[5] = test system: Staphylococcus aureus; test: Antibacterial activity against methicillin resistant Staphylococcus aureus ATCC 52056 assessed as reduction in microbial growth after 16 to 18 hrs by microbroth dilution method; format: functional; conditions: time 16-18 hrs
[6] = test system: Staphylococcus aureus; test: Antimicrobial activity against methicillin-resistant Staphylococcus aureus ATCC 43300 infected in abscesses mouse model assessed as increase in mouse survival at 50 to 200 mg/kg, sc administered every 24 hrs for 4 days; format: functional, organism-based; conditions: dose 50-200 mg/kg
[7] = test system: Cell membrane; test: Induction of cell membrane permeabilization in methicillin resistant Staphylococcus aureus ATCC 43300 assessed as fluorescence intensity at 2 times MIC measured after 30 mins by propidium iodide staining based fluorescence assay
[8] = test system: Staphylococcus aureus; test: Antibacterial activity against methicillin resistant Staphylococcus aureus ATCC 43300 assessed as reduction in microbial growth after 16 to 18 hrs by microbroth dilution method; format: functional; conditions: time 16-18 hrs
[9] = test system: Staphylococcus aureus; test: Antibacterial activity against methicillin resistant Staphylococcus aureus ATCC 43300 persisters assessed as reduction in number of bacteria at 4 times MIC incubated for 4 hrs by colony counting method; format: functional, organism-based
[10] = test system: Cell membrane; test: Induction of cell membrane damage in methicillin resistant Staphylococcus aureus ATCC 43300 assessed as increase in ATP leakage […] at 0.5 times MIC measured every 30 mins for 6 hrs by Bactiter-glo assay; format: subcellular
[11] = test system: Staphylococcus aureus; test: Antibacterial activity against methicillin resistant Staphylococcus aureus ATCC49008 assessed as reduction in microbial growth after 16 to 18 hrs by microbroth dilution method; format: functional; conditions: time 16-18 hrs
[12] = test system: Cell membrane; test: Induction of cell membrane damage in methicillin resistant Staphylococcus aureus ATCC 43300 assessed as increase in ATP leakage […] at 1 times MIC measured every 30 mins for 6 hrs by Bactiter-glo assay
[13] = test system: Staphylococcus aureus; test: Synergistic antimicrobial activity against Staphylococcus aureus ATCC 43300 assessed as FICI at 1 times MIC after 24 hrs in presence of 32 ug/ml piperacillin by checkerboard assay; format: functional
[14] = test system: Pseudomonas aeruginosa; test: Antibacterial activity against Pseudomonas aeruginosa ATCC27853 assessed as reduction in microbial growth after 16 to 18 hrs by microbroth dilution method; format: functional; conditions: time 16-18 hrs
[15] = test system: Cell membrane; test: Induction of cell membrane depolarization in methicillin resistant Staphylococcus aureus ATCC 43300 measured up to 60 mins by DiOC5 dye based flow analyzer; conditions: time min <=60, TDE = time-dependent effect

SMILES: CC(C)=CCc1c(OCCF)cc(/C=C/c2ccc(F)cc2)c(C(=O)O)c1O
- MIC [1]: 4 µg/mL
- inhibition (INH) [2]: 90%
- Activity [3]: Dose-Dependent Effect
- fractional inhibitory concentration index (FICI) [4]: 1.125
- MIC [5]: 4 µg/mL
- Activity [6]: Active
- Activity [7]: Active
- MIC [8]: 4 µg/mL
- Activity [9]: Active
- Activity [10]: Active
- MIC [11]: 4 µg/mL
- Activity [12]: Active
- fractional inhibitory concentration index (FICI) [13]: 0.315
- MIC [14]: > 32 µg/mL
- Activity [15]: Tde
